# Like-named read-outs stand apart in the source and are kept apart here.
# Assays:
# A549/T cells = experiment: SRB cell cytotoxicity assay in A549/T; type: cell-based, human; conditions: for IC50: Homo sapiens
# A2780/T cells [1] = experiment: SRB cell cytotoxicity assay in A2780/T; conditions: for fold reversal / IC50: A2780/T; for IC50: read-out: IC50 ± SD
# Procedure: Sulphorhodamine B (SRB) assays were carried out as previously described to assess cell density, based on sensitive measure of total cellular protein, which performed similarly compared with other proliferation assays such as MTT assay. Briefly, cells were seeded into flat bottomed 96-well plates at an initial density of 7.5×10^3 per well before treatment. […] After removing the medium, cells were fixed in 10% trichloroacetic acid for 1 h at 4° C. and then washed with water five times. 0.4% SRB dissolved in 1% v/v acetic acid was added and incubated 30 mm for staining. The cells were quickly washed with 1% acetic acid and left to dry overnight. The protein bound SRB was solubilized by adding 200 μl 10 mM Tris buffer per well and measured at wavelengths 490 nm using a plate reader (Spectra MAX 250; Molecular Devices, Sunnyvale, Calif.).
# A2780/T cells [2] = experiment: Combination index, Chou-Talalay method (CalcuSyn); type: cell-based, human
# Procedure: Combination index (CI) was calculated to quantitatively depict synergistic ([…], additive (CI=1), or antagonistic (CI>1) effect. With the use of CalcuSyn software v. 2.1 (Bio-soft), synergy is further refined as synergism (combination index=0.3-0.7), strong synergism (combination index=0.1-0.3), and very strong synergism (combination index<0.1).
# A2780/T cells [3] = experiment: Apoptosis by Annexin-V/PI double staining; type: cell-based, human; conditions: 7.53 μM tangeretin or 0.94 μM PTX alone
# Procedure: After treatment, 1×10^6 cells were collected, washed and suspended in 100 μl of binding buffer (10 mM N-2-hydroxyethylpiperazine-N,-2-ethanesulfonic acid/NaOH, 140 mM NaCl, 2.5 mM CaCl2, pH 7.4). Apoptotic cells were identified by double supravital staining with 5 μl recombinant FITC (fluorescein isothiocyanate)-conjugated Annexin-V and 5 μl PI (50 μg/ml). The cells were stained for […] at room temperature in the dark, and analyzed by fluorescence-activated cell sorting cater-plus flow cytometry. Data acquisition and analysis were performed in BD FACS Aria with FlowJo software.
# A2780 cells = experiment: Cell cycle analysis by flow cytometry in A2780; type: cell-based, human; conditions: A2780, PTX 0.01 μM
# Procedure: (§1) A2780/T cells were harvested after 24-hours, 48-hour, or 72-hour treatment and washed twice with ice-cold PBS. The cells were fixed and permeabilized with 70% ice-cold ethanol overnight at 4° C. or −20° C. for 2 h. After one additional wash in PBS, cells were stained with a staining solution containing PI ([…]) and RNase A (250 μg/ml) for […] at room temperature. They were then pelleted, washed and suspended in PBS to a final concentration of 1×10^6/ml and analyzed by flow cytometry (BD FACS Aria, BD Biosciences, San Jose, Calif.).
# A2780/T cells [4] = experiment: Cell cycle analysis by flow cytometry in A2780/T; type: cell-based, human; conditions: 48 h
# Procedure: as §1
# p53 = experiment: Western blot of p53 expression; type: cell-based, human; conditions: PTX in combination with tangeretin
# Procedure: The total cellular samples were harvested and rinsed twice with ice-cold PBS buffer. Cell extracts were lysed in RIPA buffer (50 mM Tris (pH 7.4), 150 mM NaCl, 1% Triton X-100, 1% sodium deoxycholate, 0.1% SDS, sodium orthovanadate, sodium fluoride and EDTA) containing protease inhibitor cocktails (Roche Life Science, USA). Protein concentration was determined using the BCA protein assay kit. Equal amounts of cell lysates were resolved by SDS-PAGE and subsequently electrophoretically transferred onto PVDF membranes (Millipore, Darmstadt, Germany). After blocking in tris-buffered saline containing 0.1% of Tween20 (TBST) with 5% (w/v) skim milk (Nestle Carnation, New Zealand) for 2 h at room temperature, the membranes were incubated with primary and secondary antibodies and subsequently visualized with an enhanced chemiluminescence detection kit (Thermo Scientific™ SuperSignal™ West Pico Chemiluminescent Substrate, USA). β-Actin was used as the loading control for the experimental data analysis.
# A2780/T cells [5] = experiment: Intracellular accumulation of DOX and Flutax-2 in A2780/T; type: cell-based, human; conditions: 8 h, 7.53 μM tangeretin or 20 μM QND
# Procedure: cells (5×10^6) were cultured on the cover glass (ISO LAB 20×20 mm). […] After treatment, cells were fixed in 4 wt % formaldehyde (Sigma-Aldrich). Nuclear DNA was stained with 1 μg/mL blue-fluorescent DAPI (1 mg/mL in H2O stock solution; Invitrogen D1306). One drop of fluorescent preservation solution (fluorsave reagent, CALBIOCHEM) was added before observation. Imaging was carried out for comparing the intracellular accumulation of DOX and flutax-2 with a Fluorescence Microscopy (Leica DM2500, Leica, Germany). […] Cells were detached, re-suspended in 500 μl of PBS after washed twice with cold PBS, and analyzed by flow cytometry (BD FACS Aria, BD Biosciences, San Jose, Calif.). Excitation and emission wavelengths (nm) used for DOX and flutax-2 were as follows: 480 to 585; and 496 to 524.
# [6] = A549, 48 h, A549/T, 48 h, drug alone, read-out: IC50 ± SD
# [7] = A549, A549/T, +0.84 μM TG, read-out: IC50 ± SD
# [8] = A549, A549/T, +5.21 μM TG, read-out: IC50 ± SD
# [9] = A549, A549/T, +7.53 μM TG, read-out: IC50 ± SD
# [10] = 0.94 μM PTX with 7.53 μM tangeretin
# [11] = 0.94 μM PTX, absence of tangeretin
SMILES,"fold reversal (A549/T cells; A549/T, +0.84 μM TG)","fold reversal (A549/T cells; A549/T, +5.21 μM TG)","fold reversal (A549/T cells; A549/T, +7.53 μM TG)","fold reversal (A549/T cells; A549/T, drug alone)",fold reversal (A2780/T cells [1]; +0.84 μM TG),fold reversal (A2780/T cells [1]; +5.21 μM TG),fold reversal (A2780/T cells [1]; +7.53 μM TG),fold reversal (A2780/T cells [1]; drug alone),"IC50 (A2780/T cells [1]; 48 h, drug alone) [µM]",IC50 (A2780/T cells [1]; +0.84 μM TG) [µM],IC50 (A2780/T cells [1]; +5.21 μM TG) [µM],IC50 (A2780/T cells [1]; +7.53 μM TG) [µM],"fold reversal (A549/T cells; A549/T, +2.51 μM TG)",IC50 (A549/T cells; [6]) [µM],IC50 (A549/T cells; [7]) [µM],IC50 (A549/T cells; [8]) [µM],IC50 (A549/T cells; [9]) [µM],also measured
"COc1cccc2c1C(=O)c1c(O)c3c(c(O)c1C2=O)C[C@@](O)(C(C)=O)C[C@@H]3O[C@H]1C[C@H](N)[C@H](O)[C@H](C)O1 [Daunorubicin, daunorubicin]",1.41,2.25,6.36,1.00,1.34,2.25,8.03,1.00,7.51 ± 0.61,5.66 ± 0.92,3.4 ± 0.82,0.96 ± 0.23,,,,,,"IC50 (A549/T cells; A549, 48 h, read-out: IC50 ± SD, A549/T, 48 h, drug alone): 6.7 ± 0.54 µM; IC50 (A549/T cells; A549, read-out: IC50 ± SD, A549/T, +0.84 μM TG): 4.74 ± 0.38 µM; IC50 (A549/T cells; A549, read-out: IC50 ± SD, A549/T, +5.21 μM TG): 2.99 ± 0.24 µM; IC50 (A549/T cells; A549, read-out: IC50 ± SD, A549/T, +7.53 μM TG): 1.06 ± 0.08 µM"
"CC(=O)O[C@H]1C(=O)[C@@]2(C)[C@H]([C@H](OC(=O)c3ccccc3)[C@]3(O)C[C@H](OC(=O)[C@H](O)[C@@H](NC(=O)c4ccccc4)c4ccccc4)C(C)=C1C3(C)C)[C@]1(OC(C)=O)CO[C@@H]1C[C@@H]2O [Paclitaxel, paclitaxel]",2.67,9.52,80.05,1.00,1.59,5.66,18.88,1.00,2.51,1.58 ± 0.04,0.45 ± 0.07,0.14 ± 0.02,9.52,2.53 ± 0.41,1.03 ± 0.33,0.27 ± 0.02,0.03 ± 0.01,"EC50 (A2780/T cells [2]; Homo sapiens, CalcuSyn simulation, alone or in combination, read-out: Dose PTX at Fa 0.5 (ED50)): 3.61 µM; decrease for the ED50 dose of PTX (A2780/T cells [2]; combination with tangeretin versus PTX alone): 18 fold; apoptosis induction, single treatment (A2780/T cells [3]): did not show apoptosis induction; G1 phase content (A2780 cells; 24 hours): 30.95%; G2-M content (A2780 cells; 24 hours): 52.63%; G1 phase content (A2780 cells; 48 hours): 14.13%; G2-M content (A2780 cells; 48 hours): 62.33%; G1 phase content (A2780 cells; 72 hours): 13.07%; G2-M content (A2780 cells; 72 hours): 74.20%; G1 phase cells (A2780/T cells [4]; [10]): 13.87%; G2 phase cells (A2780/T cells [4]; [10]): 72.37%; G1 phase cells (A2780/T cells [4]; [11]): 68.30%; G2 phase cells (A2780/T cells [4]; [11]): 18.87%; accumulation of p53 (p53): accumulation of p53; mean IC50 in A2780/T greater than that of A2780 (degree of resistance) (A2780/T cells [1]; A2780/T versus parental A2780): 501 fold"
"O=c1[nH]cc(F)c(=O)[nH]1 [5-Fluorouracil, 5-fluorouracil]",,,6.05,1.00,,,6.31,1.00,179 ± 29,,,28.4 ± 4.6,2.12,142 ± 23.1,,,23.8 ± 1.93,"fold reversal (A549/T cells; A549/T, +0.83 μM TG): 1.34; IC50 (A549/T cells; A549, A549/T, +0.83 μM TG, read-out: IC50 ± SD): 106 ± 8.63 µM; IC50 (A549/T cells; A549, A549/T, +2.51 μM TG, read-out: IC50 ± SD): 67 ± 5.44 µM; fold reversal (A2780/T cells [1]; +0.83 μM TG): 1.19; fold reversal (A2780/T cells [1]; +2.51 μM TG): 2.12; IC50 (A2780/T cells [1]; +0.83 μM TG): 152 ± 36.7 µM; IC50 (A2780/T cells [1]; +2.51 μM TG): 84.3 ± 6.56 µM"
"CC(=O)O[C@@]12CO[C@@H]1C[C@H](O)[C@@]1(C)C(=O)[C@H](O)C3=C(C)[C@@H](OC(=O)[C@H](O)[C@@H](NC(=O)OC(C)(C)C)c4ccccc4)C[C@@](O)([C@@H](OC(=O)c4ccccc4)[C@H]21)C3(C)C [Docetaxel, docetaxel]",1.58,3.82,12.07,1.00,1.99,7.95,33.66,1.00,28.4 ± 4.59,14.2 ± 2.31,3.57 ± 0.58,0.84 ± 0.07,,12.7 ± 2.06,7.8 ± 1.29,3.36 ± 0.28,1.06 ± 0.08,
"C=C[C@H]1C[N@@]2CC[C@H]1C[C@@H]2[C@@H](O)c1ccnc2ccc(OC)cc12 [QND, quinidine]",,,,,,,,,,,,,,,,,,intracellular accumulations of DOX and Flutax-2 (A2780/T cells [5]): higher than that of untreated A2780/T
